Source: patent EP0452101B1, “Spiro bridged and unbridged heterocyclic compounds” (ISRAEL INSTITUTE FOR BIOLOGICAL RESEARCH, priority 1990, dated 1991)

Test system: CA1 neurons in the hippocampal slice
Assay: Electrophysiological evaluation in rat hippocampal slices
Method: In general terms the effects of microdrops of AF150, ACh and PZ were applied to rat hippocampal cells recorded intracellularly. The exact concentrations of the drug at the receptor sites are not known, using this method. However, this method has an advantage over the perfusion method, in that it gives a more correct picture from the electrophysiological point of view (Segal, loc cit).
Intracellular responses to AF150 of CA1 neurons in the hippocampal slice were recorded, using the method of Segal. Small hyperpolarizing current pulses (current traces not shown) were alternated with stimulation of the Schaffer-commissural afferents producing postsynaptic potentials.

## CC1=NCC2(CCN(C)CC2)O1 [AF150, 2-Methyl-spiro(1,3-oxazoline-5,4')-1'-methylpiperidine]
Applied topically by microdrops
  slow AHP (Ca++-dependent K+ conductance): blocks the slow AHP
Applied topically by microdrops (AF150: 100 µM)
  depolarization: potent depolarizing response
Microdrops (100 µM)
  input resistance at rest: real increase in input resistance at rest
  postsynaptic potentials (PSPs): small reduction in postsynaptic potentials
